biological target: Protein Kinase C beta 2 (PKCβII) (Homo sapiens (Human), UniProt P05771); assay: PKCβII coupled PK/LDH spectrophotometric kinase assay; type: biochemical; conditions: apparent Ki, ATP-competitive model (Morrison equation); 0.1 mM ATP, 30° C.; read-out: PKCb Ki
Method: This transfer is coupled to the oxidation of β-NADH through the activities of Pyruvate Kinase (PK) and Lactate Dehydrogenase (LDH). β-NADH conversion to NAD+ is monitored by the decrease in absorbance at 340 nm (e=6.22 cm^−1 mM^−1) using a Molecular Devices SPECTRA max PLUS spectrophotometer.
A typical assay was carried out on a 96-well, clear microtiter plate in a Molecular Devices spectrophotometer for 20 minutes at 30° C. in 0.1 mL of assay buffer containing 50 mM HEPES, pH 7.4, 5 nM PKC, 23 units of pyruvate kinase, 33 units of lactate dehydrogenase, 0.15 mM peptide, 0.1 mM ATP, 1 mM DTT, 4 mM PEP, 8 mM MgCl2, 0.3 mM NADH, 60 mM CaCl2, 10 mg/mL PS, 50 ng/mL PMA, 7.5% DMSO and from about 10,000 nM to 0.169 nM compound inhibitor. Stock solutions of 3-sn-phosphatidyl-L-serine (PS) and phorbol-12-myristate-13-acetate (PMA) were sonicated for 30 seconds just prior to addition to assay buffer and assays were initiated by the addition of 100 μM ATP.
Enzyme turnover values (kcat) were calculated according to […], where [E] is the total enzyme concentration. Enzyme inhibition constants (apparent K values) were determined by fitting initial velocities at variable inhibitor concentrations to a model for ATP competitive inhibition based on the Morrison equation). Morrison, J. F., Biochim. Biophys Acta 185: 269-286 (1969).

Protein Kinase C beta 2 (PKCβII), sequence (P05771 other isoform, or with tags, fused parts or gaps): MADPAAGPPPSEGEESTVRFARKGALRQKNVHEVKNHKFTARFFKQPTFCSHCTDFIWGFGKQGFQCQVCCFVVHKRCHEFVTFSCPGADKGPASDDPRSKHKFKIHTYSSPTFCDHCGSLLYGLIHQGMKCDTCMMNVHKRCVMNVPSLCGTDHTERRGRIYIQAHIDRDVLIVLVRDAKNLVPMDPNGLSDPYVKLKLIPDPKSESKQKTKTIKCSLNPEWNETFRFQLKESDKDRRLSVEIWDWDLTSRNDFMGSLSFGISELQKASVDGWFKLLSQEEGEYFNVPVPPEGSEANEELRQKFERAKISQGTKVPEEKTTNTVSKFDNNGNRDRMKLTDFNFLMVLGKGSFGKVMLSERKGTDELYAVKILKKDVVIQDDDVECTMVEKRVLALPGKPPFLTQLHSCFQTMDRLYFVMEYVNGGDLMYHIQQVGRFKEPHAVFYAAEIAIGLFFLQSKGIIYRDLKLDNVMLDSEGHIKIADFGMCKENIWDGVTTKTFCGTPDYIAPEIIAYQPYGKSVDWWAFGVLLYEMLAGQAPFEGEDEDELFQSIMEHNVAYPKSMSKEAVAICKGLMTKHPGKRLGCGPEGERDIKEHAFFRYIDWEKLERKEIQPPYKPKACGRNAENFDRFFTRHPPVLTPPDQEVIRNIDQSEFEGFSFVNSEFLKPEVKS

| Ki | SMILES |
| --- | --- |
| 79.6 nM | CCC1CN(C(=O)N2Cc3c(NC(=O)c4ccccn4)n[nH]c3C2(C)C)CCN1C (centres unmarked) [Example A79] |
| 19.9 nM | CC1CN(C(=O)N2Cc3c(NC(=O)c4ccccn4)n[nH]c3C2(C)C)C(C)CN1CCCO (centres unmarked) [Example A99] |
| 50.3 nM | Cc1nc(C)c(C(=O)Nc2n[nH]c3c2CN(C(=O)N2C[C@@H](C)N(C)C[C@@H]2C)C3(C)C)o1 [Example C2] |
| 28.8 nM | CC1(C)c2[nH]nc(NC(=O)c3ccc4ccncc4n3)c2CN1C(=O)N1C[C@@H]2CCCN2C[C@@H]1Cc1ccccc1 [Example A25] |
| 28.9 nM | CC1(C)c2[nH]nc(NC(=O)c3cccc(Cl)c3)c2CN1C(=O)N1CCN2CCCC2C1 (centres unmarked) [Example A22] |
| 5.51 nM | C[C@H]1CN2CCC[C@H]2CN1C(=O)N1Cc2c(NC(=O)c3cc4ccccc4cn3)n[nH]c2C1(C)C [Example E3] |
| 12.9 nM | C[C@H]1CN2CCC[C@H]2CC1C(=O)N1Cc2c(NC(=O)c3csc(Br)n3)n[nH]c2C1(C)C (some centres unmarked) [Example A103] |
| 186 nM | C[C@H]1CN2CCC[C@H]2CN1C(=O)N1Cc2c(NC(=O)C3CCCCO3)n[nH]c2C1(C)C (some centres unmarked) [Example A112] |
| < 10 nM | C[C@@H]1CN(C(=O)N2Cc3c(NC(=O)c4ccc(C#N)cn4)n[nH]c3C2(C)C)[C@@H](C)CN1CC1CCOCC1 [Example G3] |
| 105 nM | CC[C@H]1CN2CCC[C@H]2CN1C(=O)N1Cc2c(NC(=O)c3ccccc3F)n[nH]c2C1(C)C [Example A72] |
| 25 nM | C[C@@H]1CN(C(=O)N2Cc3c(NC(=O)c4coc(C5CC5)n4)n[nH]c3C2(C)C)[C@@H](C)CN1C [Example C8] |
| 22.2 nM | CCN1C[C@H](C)N(C(=O)N2Cc3c(NC(=O)c4ccc(F)cn4)n[nH]c3C2(C)C)C[C@@H]1C [Example A126] |
| 6.17 nM | C[C@H]1CN2CCC[C@H]2CN1C(=O)N1Cc2c(NC(=O)c3ccc4cnccc4n3)n[nH]c2C1(C)C [Example E4] |
| 28.7 nM | C[C@@H]1CN(C(=O)N2Cc3c(NC(=O)c4ccc(C#N)cn4)n[nH]c3C2(C)C)[C@@H](C)CN1C [Example G2] |
| 65.5 nM | COc1ccc(C(=O)Nc2n[nH]c3c2CN(C(=O)N2C[C@@H]4CCCN4C[C@@H]2C)C3(C)C)nc1 [Example A47] |
| 10.4 nM | C[C@H]1CN2CCC[C@H]2CN1C(=O)N1Cc2c(NC(=O)c3nc(Cl)c(Cl)s3)n[nH]c2C1(C)C [Example A74] |
| 56.9 nM | Cc1cc(C(=O)Nc2n[nH]c3c2CN(C(=O)N2C[C@@H]4CCCN4C[C@@H]2C)C3(C)C)nc(C)n1 [Example A75] |

| Ki | SMILES |
| --- | --- |
| 76.2 nM | C[C@@H]1CN(C(=O)N2Cc3c(NC(=O)c4ccccn4)n[nH]c3C23CC3)[C@@H](C)CN1CC1CCOCC1 [Example A152] |
| < 10 nM | COc1ccc(C(=O)Nc2n[nH]c3c2CN(C(=O)N2C[C@@H](C)N(C4CCOCC4)C[C@@H]2C)C3(C)C)nc1 [Example F55] |
| 165 nM | CC1(C)c2[nH]nc(NC(=O)c3ccccn3)c2CN1C(=O)N1C[C@@H]2CCCN2C[C@@H]1CO [Example A78] |
| 13.9 nM | C[C@@H]1CN(C(=O)N2Cc3c(NC(=O)c4ccccn4)n[nH]c3C2(C)C)[C@@H](C)CN1C [Example A113] |
| 10.6 nM | C[C@H]1CN2CCC[C@H]2CN1C(=O)N1Cc2c(NC(=O)c3cc(C(C)(C)C)nn3C)n[nH]c2C1(C)C [Example E10] |
| 22.6 nM | Cc1nc(C)c(C(=O)Nc2n[nH]c3c2CN(C(=O)N2C[C@@H](C)N(CC4CCOCC4)C[C@@H]2C)C3(C)C)s1 [Example F10] |
| 13.9 nM | C[C@H]1CN2CCC[C@H]2CN1C(=O)N1Cc2c(NC(=O)c3cc4cccn4cn3)n[nH]c2C1(C)C [Example A76] |
| 625 nM | COCCCN1C[C@H](C)N(C(=O)N2Cc3c(NC(=O)c4cnccn4)n[nH]c3C2(C)C)C[C@H]1C [Example F3] |
| 4.17 nM | C[C@@H]1CN(C(=O)N2Cc3c(NC(=O)c4ccc(C(F)(F)F)cn4)n[nH]c3C2(C)C)[C@@H](C)CN1CC1CCOCC1 [Example F60] |
| 16.1 nM | CC1(C)c2[nH]nc(NC(=O)c3ccc4ccccc4n3)c2CN1C(=O)N1C[C@@H]2CCCN2C[C@@H]1Cc1ccccc1 [Example A14] |
| 58.6 nM | C[C@H]1CN2CCC[C@H]2CN1C(=O)N1Cc2c(NC(=O)c3cc(C4CC4)on3)n[nH]c2C1(C)C [Example E12] |
| 1.9 nM | C[C@@H]1CN(C(=O)N2Cc3c(NC(=O)c4ccccn4)n[nH]c3C2(C)C)[C@@H](C)CN1CC1CCOCC1 [Example A143] |
| 187 nM | CN1CCN(C(=O)N2Cc3c(NC(=O)c4cccs4)n[nH]c3C2(C)C)[C@@H](Cc2ccccc2)C1 [Example A6] |
| 113 nM | CC1(C)c2[nH]nc(NC(=O)c3ccccc3)c2CN1C(=O)N1CCN2CCCC2C1 (centres unmarked) [Example A16] |
| 67.1 nM | COCCCN1C[C@H](C)N(C(=O)N2Cc3c(NC(=O)Cc4c(C)noc4C)n[nH]c3C2(C)C)C[C@H]1C [Example F7] |
| 159 nM | CN1CCN(C(=O)N2Cc3c(NC(=O)c4cccc(Oc5ccccc5)c4)n[nH]c3C2(C)C)C(c2ccccc2)C1 (centres unmarked) [Example A9] |

| SMILES | Ki |
| --- | --- |
| CCN1C[C@H](C)N(C(=O)N2Cc3c(NC(=O)c4ccccn4)n[nH]c3C2(C)C)C[C@H]1C [Example A95] | 9.11 nM |
| C[C@H]1CN2CCC[C@@]2(C)CN1C(=O)N1Cc2c(NC(=O)c3ccc(F)cn3)n[nH]c2C1(C)C [Example A138] | 29.3 nM |
| C[C@@H]1CN(C(=O)N2Cc3c(NC(=O)c4ccccn4)n[nH]c3C2(C)C)C[C@H](C)N1 [Example A29] | 77.6 nM |
| C[C@H]1CN2CCC[C@H]2CN1C(=O)N1Cc2c(NC(=O)c3ccccc3F)n[nH]c2C1(C)C [Example A32] | 92.4 nM |
| CCc1cc(C(=O)Nc2n[nH]c3c2CN(C(=O)N2C[C@@H]4CCCN4C[C@@H]2C)C3(C)C)no1 [Example E1] | 61.6 nM |
| CCCN1C[C@H](C)N(C(=O)N2Cc3c(NC(=O)c4ccccn4)n[nH]c3C2(C)C)C[C@H]1CCO [Example A83] | 9.53 nM |
| CCn1nc(C)cc1C(=O)Nc1n[nH]c2c1CN(C(=O)N1C[C@@H](C)N(CC3CCOCC3)C[C@@H]1C)C2(C)C [Example F14] | 20 nM |
| Cc1cc(C(=O)Nc2n[nH]c3c2CN(C(=O)N2C[C@@H](C)N(CC4CCOCC4)C[C@@H]2C)C3(C)C)n(C)n1 [Example F12] | 33 nM |
| CC1CN(C(=O)N2Cc3c(NC(=O)c4ccccn4)n[nH]c3C2(C)C)CCN1CC1CC1 (centres unmarked) [Example A127] | 134 nM |
| CCc1cc(C(=O)Nc2n[nH]c3c2CN(C(=O)N2C[C@@H](C)N(CC4CCOCC4)C[C@@H]2C)C3(C)C)no1 [Example F19] | 26.5 nM |
| COc1cccc(C(=O)Nc2n[nH]c3c2CN(C(=O)N2C[C@@H]4CCCN4C[C@@H]2C)C3(C)C)c1 [Example A39] | 47.4 nM |
| C[C@H]1CN2CCC[C@H]2CN1C(=O)N1Cc2c(NC(=O)c3cccc(F)c3F)n[nH]c2C1(C)C [Example A63] | 65.4 nM |
| C[C@H]1CN2CCC[C@H]2CN1C(=O)N1Cc2c(NC(=O)c3c(F)cccc3C(F)(F)F)n[nH]c2C1(C)C [Example A37] | 155 nM |
| CC[C@@H]1CN(C(=O)N2Cc3c(NC(=O)c4ccccn4)n[nH]c3C2(C)C)[C@@H](C)CN1C [Example A131] | 37.2 nM |
| CCc1cc(C(=O)Nc2n[nH]c3c2CN(C(=O)N2C[C@@H](C)N(CC4CCOCC4)C[C@@H]2C)C3(C)C)on1 [Example F18] | 32.1 nM |
| Cc1nc(C)c(C(=O)Nc2n[nH]c3c2CN(C(=O)N2C[C@@H](C)N(CC4CCOCC4)C[C@@H]2C)C3(C)C)o1 [Example F20] | 19.7 nM |
| C[C@H]1CN2CCC[C@H]2CN1C(=O)C1Cc2c(NC(=O)c3cc(Cl)cc(Cl)c3)n[nH]c2C1(C)C (some centres unmarked) [Example A30] | 22.9 nM |
